Assay results: patent US11530181B2, “IL-6 inhibitors and methods of treatment” (University of Florida Research Foundation, Incorporated, priority 2018, dated 2022)

Key:
PE/CA-PJ49 cell line = experiment: Inhibitory activity in PTPRD mutant cell line PE/CA-PJ49; type: cell-based; settings: PE/CA-PJ49, 48 h
Method: Human breast cancer cell lines MCF7, MDA-MB-231 and SUM159 were maintained in Dulbecco's modified Eagle medium (DMEM). Human pancreatic cancer cell line BxPC-3 was maintained in RPMI 1640 medium. Human pancreatic cancer cell line Capan-1 was maintained in Iscove's Modified Dulbecco's Medium (IMEM). All media were supplemented with 10% FBS and 1% penicillin/streptomycin, and cells were incubated in a humidified 37° C. incubator with 5% CO2. PE/CA-PJ49 cell line was purchased from external sources and maintained according to manufacturer's protocol.
Cell viability was evaluated by using the MTT assay in triple replicates in one experiment and repeated for three times. Cancer cells were seeded in 96-well plates at a density of 3,000 cells per well. The cells were incubated at 37° C. for a period of 24 hours. Escalating concentrations of IL-6/gp130 inhibitors were added in triplicate to the plates in the presence of 10% FBS. After incubation for 48 or 72 hours, a stock solution of MTT (0.5 mg/ml) was then added to each well containing the treated cells, followed by incubation at 37° C. for 3 h. After removal of medium, the MTT dye was dissolved with spectrophotometric grade DMSO and the absorbance was read at 570 nm. The IC50 value is determined by interpolation based on the absorbance value halfway between positive and negative controls. In the experiment of LLM4 showing higher efficacy in cancer cells with higher levels of IL-6, instead of using medium with 10% FBS, DMEM with 0% FBS was used in order to eliminate the influence of trace amounts of growth factors and cytokines in FBS.
Protein tyrosine […] receptor type D (PTPRD) is reported to serve as a tumor suppressor in various human cancers [Peyser et. al, PLoS One (2015) 10(8)]. PTPRD mutation is also known to be associated with increased STAT3 expression [Peyser et. al, PLoS One (2015) 10(8)]. Table 8 captures the inhibitory activities of various compounds in the PTPRD mutant cell line, PE/CA-PJ49.

[1] = tested on: CT-1 induced STAT3 phosphorylation; experiment: Western blot, CT-1 induced STAT3 phosphorylation in MCF7; type: cell-based, human; settings: MCF7, 15 μM, time dependent
Method: (§1) Cells were harvested and lysed in cold radioimmunoprecipitation assay (RIPA) lysis buffer containing proteasome inhibitor cocktail and phosphatase inhibitor cocktail. The protein concentrations were determined using the BCA Protein Assay kit. After adding the loading buffer and boiling at 95° C. for 10 minutes, equivalent amounts of proteins were loaded on and separated by SDS-PAGE, and then were transferred to PVDF membranes. Membranes were probed with primary antibodies (1:1000) against phospho-STAT3 (Tyr705), STAT3, phospho-STAT1 (Tyr701), STAT1, phospho-STAT6 (Tyr 641), STAT6, and GAPDH, respectively, and horseradish peroxidase (HRP)-conjugated secondary antibody (1:10000) (Cell Signaling Technology, Beverly, Mass.). Membranes were analyzed using Enhanced Chemiluminescence Plus reagents and either scanned with the Storm Scanner (Amersham Pharmacia Biotech, Inc., Piscataway, N.J.) or imaged with ChemiDoc MP imaging system (Bio-Rad, Hercules, Calif.). […] The cells were harvested after 30 minutes and analyzed by Western blot.
(§2) MCF7 breast cancer cells were seeded in 10 cm plates (1 million cells per plate) and allowed to adhere overnight. […] The cells were harvested after 30 minutes and analyzed by western blotting.

[2] = tested on: INF-γ induced STAT1 phosphorylation; experiment: Western blot, INF-γ induced STAT1 phosphorylation in MCF7; type: cell-based, human; settings: MCF7, pre-treatment 2, 3 and 4 hours
Method: as §1, §2

gp130 = molecular target: T1, gp130 (Homo sapiens, UniProt P40189); experiment: Drug Affinity Responsive Target Stability (DARTS) assay in SUM159 lysates; type: binding
T1 construct: endogenous in cells; host or cells: SUM159 human breast cancer cells (lysate)
Method: Human SUM159 breast cancer cells were lysed in cold radioimmunoprecipitation assay (RIPA) lysis buffer containing proteasome inhibitor cocktail and phosphatase inhibitor cocktail. Then lysates were incubated with escalating concentrations (10-1000 μM) of LLM418 or DMSO control at room temperature for 1 h. Proteolysis was followed by adding protease pronase solution at a ratio of 1 mg of pronase to 1000 mg (or 2000 mg) of lysate protein for 30 min, 20 min or 15 min at room temperature. To stop proteolysis, 4×SDS sample loading buffer was added at 1:3 ratio to each sample and boiled at 95° C. for 10 min. The resulted protein samples were separated by 8% SDS-PAGE gel and analyzed by western blotting. The DARTS assay is a method for studying the specific protein-ligand binding interactions. It is based on the principle that the target protein structure might be stabilized and become less susceptible to proteolysis by proteases upon drug binding [Lomenick B, Jung G, Wohlschlegel J, et al. Target identification using drug affinity responsive target stability (DARTS). Curr Protoc Chem Biol 2011, 3, 163-180; Lomenick B, Olsen R, Huang J. Identification of direct protein targets of small molecules. ACS Chem Biol. 2011, 6, 34-46]. It can be used to find the targeting protein of a small molecule by running SDS-gel without purifying any specific protein. […]

T1 sequence (P40189 23-918): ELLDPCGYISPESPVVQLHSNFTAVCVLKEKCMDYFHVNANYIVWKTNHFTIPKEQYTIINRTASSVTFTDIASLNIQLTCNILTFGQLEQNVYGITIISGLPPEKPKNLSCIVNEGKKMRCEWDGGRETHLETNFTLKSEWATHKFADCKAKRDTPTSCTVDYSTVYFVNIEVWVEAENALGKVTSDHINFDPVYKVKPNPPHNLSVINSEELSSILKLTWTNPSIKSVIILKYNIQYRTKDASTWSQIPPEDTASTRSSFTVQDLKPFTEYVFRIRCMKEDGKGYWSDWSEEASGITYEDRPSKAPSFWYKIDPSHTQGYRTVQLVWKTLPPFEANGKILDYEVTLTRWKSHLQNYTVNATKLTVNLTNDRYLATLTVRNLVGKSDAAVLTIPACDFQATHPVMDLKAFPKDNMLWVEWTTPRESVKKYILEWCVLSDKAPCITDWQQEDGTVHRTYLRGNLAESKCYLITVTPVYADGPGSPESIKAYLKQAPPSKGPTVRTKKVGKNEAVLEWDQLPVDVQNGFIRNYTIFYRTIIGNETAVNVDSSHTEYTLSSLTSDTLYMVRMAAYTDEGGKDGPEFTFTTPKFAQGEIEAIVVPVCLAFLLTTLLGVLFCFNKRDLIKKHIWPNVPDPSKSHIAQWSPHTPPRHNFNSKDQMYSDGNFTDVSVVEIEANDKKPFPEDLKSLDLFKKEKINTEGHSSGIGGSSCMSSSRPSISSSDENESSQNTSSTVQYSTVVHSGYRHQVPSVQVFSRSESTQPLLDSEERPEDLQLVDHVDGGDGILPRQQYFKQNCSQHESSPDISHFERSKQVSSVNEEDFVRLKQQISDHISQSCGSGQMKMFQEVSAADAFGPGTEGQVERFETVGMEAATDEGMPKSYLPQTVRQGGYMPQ

IC50 (PE/CA-PJ49 cell line) | abundance of gp130 compared with the no drug control (gp130; 100 and 1000 μM) | abundance of the gp130 band (protection from proteolysis) (gp130; SUM159 lysates, 10-1000 μM, pronase:protein=1:2000, 15 min) | SMILES | CT-1 induced STAT3 phosphorylation [1] | effect on INF-γ induced STAT1 phosphorylation ([2]; 15 μM) | effect on STAT1 phosphorylation [2]
3410 ± 990 nM | – | – | O=C(Nc1cccc(OCCN2CCCCC2)c1)Nc1cccc(-c2ccn[nH]2)c1 [LLM414, 1-(3-(1H-pyrazol-5-yl)phenyl)-3-(3-(2-(piperidin-1-yl)ethoxy)phenyl)urea] | – | – | –
– | – | – | O=C(Nc1cc(F)ccc1-n1cccc1)c1ccc(OCCCN2CCCCC2)cc1 [LLM4, N-(5-fluoro-2-(1H-pyrrol-1-yl)phenyl)-4-(3-(piperidin-1-yl)propoxy)benzamide] | minor influence | no effect | –
1790 ± 480 nM | increased significantly | increased with an increasing dose | O=C(Nc1ccccc1-c1ccn[nH]1)c1ccc(OCCN2CCCCC2)cc1 [LLM418, N-(2-(1H-pyrazol-5-yl)phenyl)-4-(2-(piperidin-1-yl)ethoxy)benzamide] | – | – | little effect
